Results as given in PubChem BioAssay (NCI).
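Test compounds were applied to cells in 96-well plates for 48 hours at 5 doses. GI50 marks 50% less growth. TGI is the concentration that stops growth completely.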

Experiments:
Experiment in all cases: growth of human tumour cells (NCI), 48 h
RXF 393 renal = test system: RXF 393 renal
SF-268 CNS = test system: SF-268 CNS
OVCAR-4 ovarian = test system: OVCAR-4 ovarian
U251 CNS = test system: U251 CNS
UACC-257 melanoma = test system: UACC-257 melanoma
A498 renal = test system: A498 renal
SK-MEL-2 melanoma = test system: SK-MEL-2 melanoma
SF-539 CNS = test system: SF-539 CNS
HCT-116 colon = test system: HCT-116 colon
CCRF-CEM leukemia = test system: CCRF-CEM leukemia
A549 NSCLC = test system: A549 NSCLC
NCI-H226 lung = test system: NCI-H226 lung
NCI-H522 lung = test system: NCI-H522 lung
CAKI-1 renal = test system: CAKI-1 renal
LOX IMVI melanoma = test system: LOX IMVI melanoma
HOP-18 NSCLC = test system: HOP-18 NSCLC
SR leukemia = test system: SR leukemia
SK-MEL-5 melanoma = test system: SK-MEL-5 melanoma
SNB-75 CNS = test system: SNB-75 CNS
UACC-62 melanoma = test system: UACC-62 melanoma
HOP-62 NSCLC = test system: HOP-62 NSCLC
OVCAR-8 ovarian = test system: OVCAR-8 ovarian
RPMI-8226 leukemia = test system: RPMI-8226 leukemia
DMS 114 small cell lung = test system: DMS 114 small cell lung
786-0 renal = test system: 786-0 renal
OVCAR-5 ovarian = test system: OVCAR-5 ovarian
TK-10 renal = test system: TK-10 renal
XF 498 CNS = test system: XF 498 CNS
SK-MEL-28 melanoma = test system: SK-MEL-28 melanoma
KM12 colon = test system: KM12 colon
DLD-1 colon = test system: DLD-1 colon
COLO 205 colon = test system: COLO 205 colon
EKVX NSCLC = test system: EKVX NSCLC
KM20L2 colon = test system: KM20L2 colon
SW-620 colon = test system: SW-620 colon
MALME-3M melanoma = test system: MALME-3M melanoma
HL-60(TB) leukemia = test system: HL-60(TB) leukemia
IGROV1 ovarian = test system: IGROV1 ovarian
SF-295 CNS = test system: SF-295 CNS
M19-MEL melanoma = test system: M19-MEL melanoma
HOP-92 NSCLC = test system: HOP-92 NSCLC
HT29 colon = test system: HT29 colon
K-562 leukemia = test system: K-562 leukemia
SN12C renal = test system: SN12C renal
OVCAR-3 ovarian = test system: OVCAR-3 ovarian
UO-31 renal = test system: UO-31 renal
ACHN renal = test system: ACHN renal
M14 melanoma = test system: M14 melanoma
NCI-H460 lung = test system: NCI-H460 lung
DMS 273 small cell lung = test system: DMS 273 small cell lung
SK-OV-3 ovarian = test system: SK-OV-3 ovarian
SNB-78 CNS = test system: SNB-78 CNS
HCT-15 colon = test system: HCT-15 colon
LXFL 529 NSCLC = test system: LXFL 529 NSCLC
RXF-631 renal = test system: RXF-631 renal
SNB-19 CNS = test system: SNB-19 CNS
HCC-2998 colon = test system: HCC-2998 colon
MOLT-4 leukemia = test system: MOLT-4 leukemia

With `COc1ccc(C(=O)Nc2ccn(CCOC(=O)c3ccc(OC)cc3)c(=O)n2)cc1` the TGI (RXF 393 renal) was 54.3 µM, the TGI (SF-268 CNS) was > 100 µM and the TGI (OVCAR-4 ovarian) was > 100 µM. For the same compound, the TGI (U251 CNS) was > 100 µM, the TGI (UACC-257 melanoma) was > 100 µM and the TGI (A498 renal) was > 100 µM. For the same compound, the TGI (SK-MEL-2 melanoma) was > 100 µM, the TGI (SF-539 CNS) was > 100 µM and the TGI (HCT-116 colon) was > 100 µM. For the same compound, the TGI (CCRF-CEM leukemia) was > 100 µM, the TGI (A549 NSCLC) was > 100 µM and the TGI (NCI-H226 lung) was > 100 µM. For the same compound, the TGI (NCI-H522 lung) was > 100 µM, the TGI (CAKI-1 renal) was > 100 µM and the TGI (LOX IMVI melanoma) was > 100 µM. The TGI (HOP-18 NSCLC) was > 100 µM, the TGI (SR leukemia) was > 100 µM and the TGI (SK-MEL-5 melanoma) was > 100 µM. For the same compound, the TGI (SNB-75 CNS) was > 100 µM, the TGI (UACC-62 melanoma) was > 100 µM and the TGI (HOP-62 NSCLC) was > 100 µM. The TGI (OVCAR-8 ovarian) was > 100 µM, the TGI (RPMI-8226 leukemia) was > 100 µM and the TGI (DMS 114 small cell lung) was > 100 µM. For the same compound, the TGI (786-0 renal) was > 100 µM, the TGI (OVCAR-5 ovarian) was > 100 µM and the TGI (TK-10 renal) was > 100 µM. For the same compound, the TGI (XF 498 CNS) was > 100 µM, the TGI (SK-MEL-28 melanoma) was > 100 µM and the TGI (KM12 colon) was > 100 µM. For the same compound, the TGI (DLD-1 colon) was > 100 µM, the TGI (COLO 205 colon) was > 100 µM and the TGI (EKVX NSCLC) was > 100 µM. The TGI (KM20L2 colon) was > 100 µM, the TGI (SW-620 colon) was > 100 µM and the TGI (MALME-3M melanoma) was > 100 µM. The TGI (HL-60(TB) leukemia) was > 100 µM, the TGI (IGROV1 ovarian) was > 100 µM and the TGI (SF-295 CNS) was > 100 µM. The TGI (M19-MEL melanoma) was > 100 µM, the TGI (HOP-92 NSCLC) was > 100 µM and the TGI (HT29 colon) was > 100 µM. For the same compound, the TGI (K-562 leukemia) was > 100 µM, the TGI (SN12C renal) was > 100 µM and the TGI (OVCAR-3 ovarian) was > 100 µM. The TGI (UO-31 renal) was > 100 µM, the TGI (ACHN renal) was > 100 µM and the TGI (M14 melanoma) was > 100 µM. For the same compound, the TGI (NCI-H460 lung) was > 100 µM, the TGI (DMS 273 small cell lung) was > 100 µM and the TGI (SK-OV-3 ovarian) was > 100 µM. The TGI (SNB-78 CNS) was > 100 µM, the TGI (HCT-15 colon) was > 100 µM and the TGI (LXFL 529 NSCLC) was > 100 µM. For the same compound, the TGI (RXF-631 renal) was > 100 µM.

In the case of `COc1cc(Cn2c3ccccc3c3cc(C)cc(OC)c32)cc2c1[nH]c1ccccc12`, the GI50 (SF-268 CNS) is reported as 17.5 µM, the TGI (SF-268 CNS) is reported as > 25 µM and the TGI (U251 CNS) is reported as > 25 µM. The TGI (SK-MEL-2 melanoma) was > 25 µM, the GI50 (SF-539 CNS) was 9.83 µM and the TGI (SF-539 CNS) was > 25 µM. The TGI (HCT-116 colon) was > 25 µM, the GI50 (CCRF-CEM leukemia) was 12 µM and the TGI (CCRF-CEM leukemia) was > 25 µM. The GI50 (A549 NSCLC) was 23.2 µM, the TGI (A549 NSCLC) was > 25 µM and the GI50 (NCI-H226 lung) was 17 µM. For the same compound, the TGI (NCI-H226 lung) was > 25 µM, the GI50 (NCI-H522 lung) was 5.43 µM and the TGI (NCI-H522 lung) was 21 µM. For the same compound, the GI50 (LOX IMVI melanoma) was 8.19 µM, the TGI (LOX IMVI melanoma) was > 25 µM and the GI50 (SR leukemia) was 16.6 µM. The TGI (SR leukemia) was > 25 µM, the TGI (SK-MEL-5 melanoma) was > 25 µM and the GI50 (UACC-62 melanoma) was 15 µM. For the same compound, the TGI (UACC-62 melanoma) was > 25 µM, the GI50 (HOP-62 NSCLC) was 6.63 µM and the TGI (HOP-62 NSCLC) was 17.4 µM. For the same compound, the TGI (OVCAR-8 ovarian) was > 25 µM, the TGI (RPMI-8226 leukemia) was > 25 µM and the TGI (DMS 114 small cell lung) was > 25 µM. For the same compound, the TGI (786-0 renal) was > 25 µM, the TGI (OVCAR-5 ovarian) was > 25 µM and the TGI (SNB-19 CNS) was > 25 µM. For the same compound, the TGI (TK-10 renal) was > 25 µM, the TGI (SK-MEL-28 melanoma) was > 25 µM and the GI50 (KM12 colon) was 10.2 µM. The TGI (KM12 colon) was > 25 µM, the TGI (DLD-1 colon) was > 25 µM and the TGI (COLO 205 colon) was > 25 µM. For the same compound, the GI50 (KM20L2 colon) was 15.4 µM, the TGI (KM20L2 colon) was > 25 µM and the GI50 (SW-620 colon) was 13.4 µM. The TGI (SW-620 colon) was > 25 µM, the TGI (HCC-2998 colon) was > 25 µM and the TGI (MALME-3M melanoma) was > 25 µM. For the same compound, the GI50 (HL-60(TB) leukemia) was 12.3 µM, the TGI (HL-60(TB) leukemia) was > 25 µM and the TGI (IGROV1 ovarian) was > 25 µM. The TGI (M19-MEL melanoma) was > 25 µM, the GI50 (HOP-92 NSCLC) was 5.39 µM and the TGI (HOP-92 NSCLC) was > 25 µM. The GI50 (HT29 colon) was 16.9 µM, the TGI (HT29 colon) was > 25 µM and the GI50 (MOLT-4 leukemia) was 8.51 µM. The TGI (MOLT-4 leukemia) was > 25 µM, the GI50 (K-562 leukemia) was 9.7 µM and the TGI (K-562 leukemia) was > 25 µM. For the same compound, the TGI (SN12C renal) was > 25 µM, the TGI (OVCAR-3 ovarian) was > 25 µM and the TGI (UO-31 renal) was > 25 µM. The GI50 (ACHN renal) was 12.2 µM, the TGI (ACHN renal) was > 25 µM and the GI50 (M14 melanoma) was 6.27 µM. For the same compound, the TGI (M14 melanoma) was 20.2 µM, the GI50 (NCI-H460 lung) was 10.8 µM and the TGI (NCI-H460 lung) was > 25 µM. For the same compound, the GI50 (DMS 273 small cell lung) was 15.2 µM, the TGI (DMS 273 small cell lung) was > 25 µM and the TGI (SK-OV-3 ovarian) was > 25 µM. The TGI (SNB-78 CNS) was > 25 µM, the GI50 (HCT-15 colon) was 16.8 µM and the TGI (HCT-15 colon) was > 25 µM. For the same compound, the GI50 (LXFL 529 NSCLC) was 17 µM and the TGI (LXFL 529 NSCLC) was > 25 µM.
